Test results published in US7528164B2, “Substituted 4-aryl-4h-pyrrolo[2,3-h]chromenes and analogs as activators of caspases and inducers of apoptosis and the use thereof” (Cytovia, Inc., priority 2002, dated 2009).
pEC50: −log10 of the molar value. Read-outs that look alike come from different tables or passages of the source.

Experiments:
T-47D = assay: Caspase cascade activation assay in T-47D cells (N-(Ac-DEVD)-N'-ethoxycarbonyl-R110 fluorogenic substrate); assay type: cell-based; conditions: T-47D human breast cancer cells, 24 h incubation; for pEC50: sigmoidal dose-response, read-out: Caspase potency EC50; for Caspase activity (Ratio): ratio of net RFU of test compound to control
Description: (§1) Human breast cancer cell lines T-47D and ZR-75-1 were grown according to media component mixtures designated by American Type Culture Collection+10% FCS (Invitrogen Corporation), in a 5% CO2-95% humidity incubator at 37° C. T-47D and ZR-75-1 cells were maintained at a cell density between 30 and 80% confluency at a cell density of 0.1 to 0.6×10^6 cells/mL. Cells were harvested at 600×g and resuspended at 0.65×10^6 cells/mL into appropriate media+10% FCS. An aliquot of 45 μl of cells was added to a well of a 96-well microtiter plate containing 5 μl of a 10% DMSO in RPMI-1640 media solution containing about […] of 2-amino-3-cyano-4-(5-methyl-pyridin-3-yl)-7-methyl-4H-pyrrolo[2,3-h]chromene (Example 10) or other test compound (0.016 to 1 μM final). An aliquot of 45 μl of cells was added to a well of a 96-well microtiter plate containing 5 μl of a 10% DMSO in RPMI-1640 media solution without test compound as the control sample. The samples were mixed by agitation and then incubated at 37° C. for 24 h in a 5% CO2-95% humidity incubator. After incubation, the samples were removed from the incubator and 50 μl of a solution containing 20 μM of N-(Ac-DEVD)-N′-ethoxycarbonyl-R110 (SEQ ID No:1) fluorogenic substrate (Cytovia, Inc.; U.S. Pat. No. 6,335,429), 20% sucrose (Sigma), 20 mM DTT (Sigma), 200 mM NaCl (Sigma), 40 mM Na PIPES buffer pH 7.2 (Sigma), and 500 μg/ml lysolecithin (Calbiochem) was added. The samples were mixed by agitation and incubated at room temperature. Using a fluorescent plate reader (Model 1420 Wallac Instruments), an initial reading (T=0) was made approximately 1-2 min after addition of the substrate solution, employing excitation at 485 nm and emission at 530 nm, to determine the background fluorescence of the control sample. After the 3 h incubation, the samples were read for fluorescence as above (T=3 h).
(§2) The Relative Fluorescence Unit values (RFU) were used to calculate the sample readings as follows: RFU(T=3h)−Control RFU(T=0)=Net RFU(T=3h) The activity of caspase cascade activation was determined by the ratio of the net RFU value for 2-amino-3-cyano-4-(5-methyl-pyridin-3-yl)-7-methyl-4H-pyrrolo[2,3-h]chromene or other test compound to that of control samples. The EC50 (nM) was determined by a sigmoidal dose-response calculation (Prism 2.0, GraphPad Software Inc.).

ZR-75-1 = assay: Caspase cascade activation assay in ZR-75-1 cells (N-(Ac-DEVD)-N'-ethoxycarbonyl-R110 fluorogenic substrate); assay type: cell-based; conditions: ZR-75-1 human breast cancer cells, 24 h incubation; for Caspase activity (Ratio): ratio of net RFU of test compound to control; for pEC50: sigmoidal dose-response, read-out: Caspase potency EC50
Description: as §1, §2

Row | Compound | pEC50 (T-47D; T47D) | pEC50 (ZR-75-1) | pEC50 (T-47D) | Caspase activity (Ratio) (T-47D) | Caspase activity (Ratio) (ZR-75-1)
1 | Cn1ccc2c3c(ccc21)C(c1ccc(Cl)c(F)c1)C(C#N)=C(N)O3 (stereo not drawn) [Example 40H, 2-Amino-3-cyano-4-(3-fluoro-4-chlorophenyl)-7-methyl-4H-pyrrolo[2,3-h]chromene] | < 7.00 | 7.25 | – | 1.3 | 6.0
2 | CCC=CCC=CCC=CCC=CCC=CCC=CCCC(=O)OCn1ccc2c3c(ccc21)C(c1cncc(C)c1)C(C#N)=C(N)O3 (stereo not drawn) [Example 39, 4,7,10,13,16,19-Docosahexaenoic acid {2-Amino-3-cyano-4-(5-methyl-pyridin-3-yl)-4H-pyrrolo[2,3-h]chromene}-7-ylmethyl ester] | – | 7.59 | 7.29 | 3.7 | 6.2
3 | COc1cc(C2C(C#N)=C(N)Oc3c2ccc2c3ccn2CC2CC2)cc(Br)c1OC (stereo not drawn) [Example 5, 2-Amino-4-(3-bromo-4,5-dimethoxyphenyl)-3-cyano-7-cyclopropylmethyl-4H-pyrrolo[2,3-h]chromene] | 7.26 | 7.54 | – | 4.0 | 3.0
4 | Cn1ccc2c3c(ccc21)C(c1ccc(F)c(F)c1)C(C#N)=C(N)O3 (stereo not drawn) [Example 40G, 2-Amino-3-cyano-4-(3,4 difluorophenyl)-7-methyl-4H-pyrrolo[2,3-h]chromene] | 7.54 | 7.82 | – | 4.6 | 5.9
5 | Cn1ccc2c3c(ccc21)C(c1ccc(F)c(Br)c1)C(C#N)=C(N)O3 (stereo not drawn) [Example 40I, 2-Amino-3-cyano-4-(3-bromo-4-fluorophenyl)-7-methyl-4H-pyrrolo[2,3-h]chromene] | 7.54 | 7.85 | – | 3.9 | 4.4
6 | Cn1ccc2c3c(ccc21)C(c1cccc(F)c1)C(C#N)=C(N)O3 (stereo not drawn) [Example 40A, 2-Amino-3-cyano-4-(3-fluorophenyl)-7-methyl-4H-pyrrolo[2,3-h]chromene] | 7.85 | 8.14 | – | 5.1 | 4.1
7 | CN1CCc2c1ccc1c2OC(N)=C(C#N)C1c1cc(F)cc(F)c1 (stereo not drawn) [Example 35, 2-Amino-3-cyano-4-(3,5-difluorophenyl)-8,9-dihydro-7-methyl-4H-pyrrolo [2,3-h]chromene] | 7.55 | 8.00 | – | 4.3 | 5.5
8 | CCn1ccc2c3c(ccc21)C(c1cc(Br)c(OC)c(OC)c1)C(C#N)=C(N)O3 (stereo not drawn) [Example 4, 2-Amino-4-(3-bromo-4,5-dimethoxyphenyl)-3-cyano-7-ethyl-4H-pyrrolo[2,3-h]chromene] | 7.85 | 7.88 | – | 6.6 | 9.2
9 | COc1cc(OC)cc(C2C(C#N)=C(N)Oc3c2ccc2c3ccn2CO)c1 (stereo not drawn) [Example 34, 2-Amino-3-cyano-4-(3,5-dimethoxyphenyl)-7-hydroxymethyl-4H-pyrrolo [2,3-h]chromene] | 8.15 | 8.19 | – | 3.3 | 3.9
10 | Cn1ccc2c3c(ccc21)C(c1cnc(O)c(Cl)c1)C(C#N)=C(N)O3 (stereo not drawn) [Example 9, 2-Amino-4-(5-chloro-6-hydroxy-pyridin-3-yl)-3-cyano-7-methyl-4H-pyrrolo[2,3-h]chromene] | 7.85 | 8.21 | – | 8.3 | 7.8
11 | Cn1ccc2c3c(ccc21)C(c1cccc(Cl)c1)C(C#N)=C(N)O3 (stereo not drawn) [Example 40C, 2-Amino-3-cyano-4-(3-chlorophenyl)-7-methyl-4H-pyrrolo[2,3-h]chromene] | 7.85 | 8.10 | – | 4.0 | 2.7
12 | COc1cc(C2C(C#N)=C(N)Oc3c2ccc2c3ccn2C)cc(Br)c1OC(C)=O (stereo not drawn) [Example 22, 2-Amino-4-(4-acetoxy-3-bromo-5-methoxyphenyl)-3-cyano-7-methyl-4H-pyrrolo[2,3-h]chromene] | 8.47 | 8.70 | – | 5.3 | 7.2
13 | Cn1ccc2c3c(ccc21)C(c1cc(F)cc(F)c1)C(C#N)=C(N)O3 (stereo not drawn) [Example 30, 2-Amino-3-cyano-4-(3,5-difluorophenyl)-7-methyl-4H-pyrrolo[2,3-h]chromene] | 8.14 | 8.47 | – | 3.6 | 5.6
14 | COc1cc(C2C(C#N)=C(N)Oc3c2ccc2c3ccn2CO)cc(OC)c1OC (stereo not drawn) [Example 33, 2-Amino-3-cyano-4-(3,4,5-trimethoxyphenyl)-7-hydroxymethyl-4H-pyrrolo[2,3-h]chromene] | 8.21 | 8.48 | – | 4.3 | 3.0

Continued by rising pEC50 (ZR-75-1), values first:

Row | pEC50 (T-47D; T47D) | pEC50 (ZR-75-1) | pEC50 (T-47D) | Compound | Caspase activity (Ratio) (T-47D) | Caspase activity (Ratio) (ZR-75-1)
15 | 8.14 | 8.49 | – | Cn1ccc2c3c(ccc21)C(c1cccc([N+](=O)[O-])c1)C(C#N)=C(N)O3 (stereo not drawn) [Example 25, 2-Amino-3-cyano-4-(3-nitrophenyl)-7-methyl-4H-pyrrolo[2,3-h]chromene] | 3.2 | 7.1
16 | 8.16 | 8.54 | – | Cn1ccc2c3c(ccc21)C(c1cccc(C#N)c1)C(C#N)=C(N)O3 (stereo not drawn) [Example 32, 2-Amino-3-cyano-4-(3-cyanophenyl)-7-methyl-4H-pyrrolo[2,3-h]chromene] | 5.3 | 3.6
17 | 8.17 | 8.57 | – | Cn1ccc2c3c(ccc21)C(c1cncc(Cl)c1)C(C#N)=C(N)O3 (stereo not drawn) [Example 7, 2-Amino-4-(5-chloro-pyridin-3-yl)-3-cyano-7-methyl-4H-pyrrolo[2,3-h]chromene] | 5.1 | 13.1
18 | 8.43 | 8.62 | – | Cc1cncc(C2C(C#N)=C(N)Oc3c2ccc2c3ccn2CO)c1 (stereo not drawn) [Example 20, 2-Amino-3-cyano-4-(5-methyl-pyridin-3-yl)-7-hydroxymethyl-4H-pyrrolo[2,3-h]chromene] | 4.7 | 6.3
19 | 8.47 | 8.66 | – | COc1cc(C2C(C#N)=C(N)Oc3c2ccc2c3ccn2C)cc(OC)c1OC (stereo not drawn) [Example 24, 2-Amino-3-cyano-4-(3,4,5-trimethoxyphenyl)-7-methyl-4H-pyrrolo[2,3-h]chromene] | 5.5 | 7.1
20 | 8.46 | 8.77 | – | COc1cc(OC)cc(C2C(C#N)=C(N)Oc3c2ccc2c3ccn2C)c1 (stereo not drawn) [Example 26, 2-Amino-3-cyano-4-(3,5-dimethoxyphenyl)-7-methyl-4H-pyrrolo[2,3-h]chromene] | 5.2 | 7.1
21 | 8.52 | 8.80 | – | N#CC1=C(N)Oc2c(ccc3c2ccn3CO)C1c1cncc(Br)c1 (stereo not drawn) [Example 21, 2-Amino-4-(5-bromo-pyridin-3-yl)-3-cyano-7-hydroxymethyl-4H-pyrrolo[2,3-h]chromene] | 2.2 | 4.4
22 | – | 8.82 | 8.80 | 2-Amino-4-(3-bromo-4,5-dimethoxyphenyl)-3-cyano-7-methyl-4H-imidazo[4,5-h]chromene [Example 12] | 5.4 | 8.5
23 | 8.54 | 8.96 | – | Cn1ccc2c3c(ccc21)C(c1cncc(Br)c1)C(C#N)=C(N)O3 (stereo not drawn) [Example 11, 2-Amino-4-(5-bromo-pyridin-3-yl)-3-cyano-7-methyl-4H-pyrrolo [2,3-h]chromene] | 4.6 | 4.1
24 | 8.80 | 9.00 | – | COc1cc(C2C(C#N)=C(N)Oc3c2ccc2c3ccn2C)cc(Br)c1OC (stereo not drawn) [Example 16, 2-Amino-4-(3-bromo-4,5-dimethoxyphenyl)-3-cyano-7-methyl-4H-pyrrolo[2,3-h]chromene] | 8.1 | 11.7
